# Assay results reported in US20050277586A1, “Peptide chemically modified with polyethylene glycol” (priority 2002, published 2005).
# Experiments:
# [1] = Measurement of turbidity in BSA (absorbance at 600 nm); format: physicochemical; conditions: 1% BSA, peptide 50 μM
# Procedure: The solutions were evaluated for their absorbance at a wavelength of 600 nm by using a spectrophotometer (DU640, manufactured by Beckman).
# [2] = system: Vero cell, T24 cell, A549 cell; experiment: Nucleic acid-introducing ability, luciferase-expressing plasmid (procedure of Example 9); format: cell-based; conditions: for Nucleic acid-introducing ability: luciferase plasmid 1 μg/mL, highest count of peptide 1.25, 2.5 or 5 μM, cell line not stated
# Text: A cell line established from monkey kidney (Vero cell) and a human bladder cancer cell (T24 cell) purchased from American Type Culture Collection (ATCC) and human lung cancer cell (A549 cell) purchased from Dainippon Pharmaceutical were inoculated on a 24 well culture plate (manufactured by NALGEN NUNC) at 1×10^5 cells/well. Vero cell and A549 cell were cultivated in DMEM (manufactured by Life Technologies Oriental) supplemented with 10% fetal bovine serum (hereinafter referred to as FBS, manufactured by NICHIREI), and T24 cell was cultivated in McCoy's 5a (manufactured by Life Technologies Oriental) supplemented with 10% FBS in 5% CO2 atmosphere at 37° C. for 24 hours. After removing the medium, opti-MEM (manufactured by Life Technologies Oriental) prepared to have the concentration of the luciferase-expressing plasmid prepared in Example 7 of 1 μg/mL and the concentration of the peptide prepared in Example 1 of 1.25, 2.5, or 5 μM was added, and the cells were cultivated for 5 hours. Next, in the case of Vero cell and A549 cell, the culture medium was replaced with DMEM supplemented with 10% FBS, and in the case of T24 cell, the medium was replaced with McCoy's 5a supplemented with 10% FBS, and cultivation was continued in 5% CO2 atmosphere and at 37° C. for another 24 hours. The luciferase activity expressed in the cell was then measured by the method instructed in luciferase assay system (manufactured by Promega). To be more specific, the cells were washed with phosphate-buffered saline (hereinafter referred to as PBS, manufactured by SIGMA), and the cells were lyzed with Passive Lysis Buffer attached to the kit.
# 20 μL of this cell lysate and 100 μL of the Luciferase Assay Reagent II attached to the kit was added to a fluorescence-measuring plate (Microlite™ 1 plate, manufactured by Dynatech), and after mixing, fluorescence was measured for 1 second by using a multilabel counter (ARVO™ SY1420 MULTILABEL COUNTER, manufactured by Wallac Beltold.
# Concentration of the protein in the cell lysate was measured by mixing 8 μL of the cell lysate and 200 μL of the protein assay solution (manufactured by Biorad) with 792 μL of ultrapure water in a disposable cuvette (UV fluorescent cuvette A204X, manufactured by Funakoshi), allowing the mixture to stand for 5 minutes at room temperature, and measuring the absorption at 595 nm with a spectrophotometer (DU640, manufactured by Beckman). Bovine serum albumin (BSA) was used for the standard protein. By using the thus obtained results, count per 1 second per 1 mg of protein of the cell lysate was calculated to thereby use the count as the luciferase activity, and the highest count in the three conditions of different peptide concentration was designated the gene-introducing ability of the peptide.
# [3] = target: phosphatidyl serine (binding of human Factor VIII); experiment: Affinity for phosphatidyl serine (EIA, inhibition of human Factor VIII binding); conditions: for IC50: in the presence of 5% BSA, human Factor VIII 1 μg/mL
# Procedure: The specific affinity of the peptide for phosphatidyl serine was evaluated by measuring activity of the peptide for inhibiting the binding of the human Factor VIII to phosphatidyl serine by using human Factor VIII which is known to bind to phosphatidyl serine but not to phosphatidyl choline in the presence of serum albumin. To be more specific, 100 μL of ethanol solution containing 10 μg/mL of phospholipids at a phosphatidyl serine (manufactured by SIGMA): phosphatidyl choline (manufactured by SIGMA) ratio of 3:7 was added to the wells of a 96 well plate (Immulon I, manufactured by Dynatech), and exsiccated by using a centrifugal evaporator (EC-95C, manufactured by Sakuma Seisakusho) at 40° C. for 40 minutes. 200 μL each of TBS (10 mM Tris-HCl (pH 7.4) containing 1% bovine serum albumin (BSA Fraction V, hereinafter referred to as BSA, manufactured by Seikagaku Corporation) and 0.9% (W/V) NaCl solution were added to each well, and the wells were blocked by allowing the plate to stand at 37° C. for 2.5 hours. After washing the plate with water, 100 μL of TBS solution supplemented with 5% BSA mixed with human Factor VIII (manufactured by American Diagnostica) at a final concentration 1 μg/mL and the peptide of predetermined dose prepared in Example 1 was added to each well, and the reaction was allowed to take place at 4° C. for 24 hours.
# After the completion of the reaction, the human Factor VIII that became bound to the phosphatidyl serine was measured by enzyme immunoassay (EIA) in accordance with the general procedure described in a book (“Enzyme Immunoassay (3rd ed.)”, Eiji Ishikawa et al., Igaku-Shoin, 1987). To be more specific, the measurement was conducted by using anti-human Factor VIII mouse monoclonal antibody (ESH8, manufactured by American Diagnostica) for the primary antibody, horseradish peroxidase-labeled anti-mouse IgG antibody (P0260, manufactured by Daco) for the secondary antibody, and tetramethylbenzidine for the chromogenic substrate, and measuring the absorption at a wavelength of 450 nm by using a reference wavelength of 630 nm on a spectrophotometer (NJ-2100, manufactured by Intermed).
# Intensity of the affinity of the peptide for the phosphatidyl serine was evaluated by using the value obtained by subtracting the absorption of the well having no human Factor VIII added thereto from the absorption of the well having only the human Factor VIII added thereto as the control value (100%), and designating the peptide concentration at which the value 0.5 was obtained when the value obtained by subtracting the absorption of the well having only the peptide added thereto from the absorption of the well having a mixture of the human Factor VIII and the peptide added thereto were divided by the control value as the IC50 value, and evaluating the intensity to be ++ when the IC50 value was up to 1 μM, and + when the intensity was more than 1 μM but not more than 10 μM. It is to be noted that the specific affinity was evaluated to be none when the intensity was 10 μM or more.
Substance,OD 600 [1],Nucleic acid-introducing ability [2],IC50 [3] [nM],Ability of introducing the nucleic acid into a cell ([2]; procedure of Example 9),Fluorescent count per 1 mg of protein per 1 second ([2]; procedure of Example 9),Affinity for phosphatidyl serine ([3]; procedure of Example 20)
TRYLRIHPRSWVRQIALRLRYLRIHPRSWVRQIALRS [SEQ ID NO: 2],< 0.01,"3+ (1,000,000 to less than 10,000,000)",< 1000,,,
TRYLRIHPRSWVHNIALRLRYLRIHPRSWVHNIALRS [SEQ ID NO: 6],< 0.01,"2+ (100,000 to less than 1,000,000)",< 1000,,,
SEQ ID NO: 12: SEQ ID NO: 1 with one or two locations in the 18 amino acid sequence substituted (TRYLRIHPRSWVHQIALSLRYLRIHPRSWVHQIALSS),,"2+ (100,000 to less than 1,000,000)",,,,
TRSLRIHPRSWVHQIALRLRSLRIHPRSWVHQIALRS [SEQ ID NO: 10],< 0.01,"3+ (1,000,000 to less than 10,000,000)",1000 to 10000,,,
TIHPRSWVHQIALRLRYLRIHPRSWVHQIAS [SEQ ID NO: 23],< 0.01,"2+ (100,000 to less than 1,000,000)",< 1000,had the ability of introducing the nucleic acid into a cell,,
TRYLRLHPRSWLHQLALRLRYLRLHPRSWLHQLALRS [SEQ ID NO: 19],< 0.01,"4+ (10,000,000 to less than 100,000,000)",< 1000,,,
SEQ ID NO: 18: SEQ ID NO: 1 with one or two locations in the 18 amino acid sequence substituted (TRYLRIHPRSWLHQIALRTRYLRIHPRSWLHQIALRS),,"4+ (10,000,000 to less than 100,000,000)",,,,
SEQ ID NO: 20: SEQ ID NO: 1 with three locations in the 18 amino acid sequence substituted (TRYLRLHPRSWVHQLALRTRYLRLHPRSWVHQLALRS),,"4+ (10,000,000 to less than 100,000,000)",,,,
SEQ ID NO: 21: SEQ ID NO: 1 with three locations in the 18 amino acid sequence substituted (TKYLKIHPKSWVHQIALRLKYLKIHPKSWVHQIALRS),,"2+ (100,000 to less than 1,000,000)",,,,
SEQ ID NO: 9: SEQ ID NO: 1 with one or two locations in the 18 amino acid sequence substituted (TRYLRIHPRSWVHQIALRTRYLRIHPRSWVHQIALRS),,"3+ (1,000,000 to less than 10,000,000)",,,,
TRYLRIHPKSWVHQIALRLRYLKIHPRSWVHQIALRS [SEQ ID NO: 8],< 0.01,"3+ (1,000,000 to less than 10,000,000)",1000 to 10000,,,
TRYLRIHPRSWVHQIRLRLRYLRIHPRSWVHQIRLRS [SEQ ID NO: 3],< 0.01,"2+ (100,000 to less than 1,000,000)",< 1000,,,
TRYLRIHPRLWVHQIALRLRYLRIHPRLWVHQIALRS [SEQ ID NO: 11],< 0.01,"3+ (1,000,000 to less than 10,000,000)",1000 to 10000,,,
TRFLRIHPRSWVHQIALRLRFLRIHPRSWVHQIALRS [SEQ ID NO: 5],< 0.01,"2+ (100,000 to less than 1,000,000)",< 1000,,,
SEQ ID NO: 24: deletion mutant of the peptide of SEQ ID NO: 4 (TLRYLRIHPRSWLHQIALRS),,"1+ (10,000 to less than 100,000)",,had the ability of introducing the nucleic acid into a cell,,
SEQ ID NO: 26: SEQ ID NO: 1 with amino acid substitution so that it lacks the four sided 18 amino acid sequence (TRYLRIHPRSWVLQIALRLRYLRIHPRSWVLQIALRS) [reference compound],,,,no nucleic acid-introducing ability was found,"less than 10,000 cps/mg protein",
TRYLRIHPRSWVHQIALKLKYLRIHPRSWVHQIALRS [SEQ ID NO: 7],< 0.01,"2+ (100,000 to less than 1,000,000)",1000 to 10000,,,
SEQ ID NO: 14: SEQ ID NO: 1 with one or two locations in the 18 amino acid sequence substituted (TRYLRIHPRSWSHQIALRLRYLRIHPRSWSHQIALRS),,"3+ (1,000,000 to less than 10,000,000)",,,,
TRYLRIRPRSWVRQIALRLRYLRIRPRSWVRQIALRS [SEQ ID NO: 15],< 0.01,"2+ (100,000 to less than 1,000,000)",< 1000,,,
SEQ ID NO: 13: SEQ ID NO: 1 with one or two locations in the 18 amino acid sequence substituted (TRYLRIHPRSLVHQIALRLRYLRIHPRSLVHQIALRS),,"3+ (1,000,000 to less than 10,000,000)",,,,
TRSLRIHPRLWVHQIALRLRSLRIHPRLWVHQIALRS [SEQ ID NO: 17],< 0.01,"2+ (100,000 to less than 1,000,000)",< 1000,,,
SEQ ID NO: 22: SEQ ID NO: 1 with three locations in the 18 amino acid sequence substituted (TRRLRIHPRRWVHRIALRLRRLRIHPRRWVHRIALRS),,"3+ (1,000,000 to less than 10,000,000)",,,,
Polylysine [reference compound],≥ 1,,,,,no affinity for phosphatidyl serine
